In one data set the test system is hair loss. Particulars: clinical studies, taken by mouth; cited from earlier work.
The next data set has as its system scalp hair growth. Put plainly: Local application of insulin to the scalp, alone or before other agents, hair growth. The format is in vivo, human.
Data set [1] concerns cultured human hair follicles. Particulars: cited from earlier work; for preventing hair follicles from entering into a catagen-like state, compared with insulin / rates of hair follicle growth compared with 10 micrograms/ml insulin: IGF-I 10 ng/ml, IGF-II 100 ng/ml; for effect on hair follicle growth: in the presence of 10 micrograms/ml insulin.
The conditions of data set [2]: cited from earlier work.
On data set [3], the source says: If one develops hypoglycemic symptoms due to any number of reasons, drink a sugar drink, eat a candy, or fruit cocktail.
Data set [4] concerns MCF-7 human breast cancer cells. Particulars: MCF-7 cells, insulin plus methotrexate; cited from earlier work.
The next data set concerns wound healing. As to the kind of experiment: Local insulin on ulcers, tooth extraction wounds and gums. Type of data set: in vivo, human. The source says: We have used insulin for more than a decade to enhance the effectiveness of locally injected therapeutic agents specially cancers with chemotherapeutic agents with remarkable results. Our research data also supports that the insulin spray on indolent ulcers anywhere in the body, including the oral (gums) and nasal cavity.

In data set [5] the test system is hair loss due to chemotherapy. As to the kind of experiment: Insulin spray on the scalp during chemotherapy. Type of data set: in vivo, human. The note with it: 3-5 units of insulin diluted in normal saline or ringers lactate, cancer patients. The procedure:
It is this experience that leads us to this invention. […] We also experimented with application of cold pack to the scalp 15 minutes after insulin spray, which caused the constriction of BV and reduced the amount of chemotherapy agent reaching the scalp hair which causes havoc on the hair root cells. These three simple methods reduced the profound loss of scalp hair to chemotherapy toxic effects in cancer patients during chemotherapy treatment. Insulin applied directly to the scalp had preventive effect on hair loss due to chemotherapy.

Setting [6] is: in the absence of insulin, 0.01-100 ng/ml.

Like-named read-outs stand apart in the source and are kept apart here.

Data on seven compounds can be found in US20100172865A1, “METHODS OF ENHANCING HAIR GROWTH” (priority 2010, published 2010).

Description for scalp hair growth: Wash scalp with mild shampoo. Avoid using hair conditioners which may coat the bald skin resulting in prevention of the effective absorption of insulin. This is followed by application of oxidant. In our invention, we can use any one of the above described antioxidants, but in this instance we are discussing povidine iodine. […] Allow it to dry, and follow it by application of insulin by a spray or swab repeatedly 2-3 times as it dries.
Apply the Wash dressing on the wound if need be.
Step 4: Apply selected hair growth therapeutic agent, which includes prostaglandin and its derivatives which are already in the market and FDA approved.
We recommend the use of tocotrienols after insulin application so that this therapeutic agent can easily permeate the hair follicle and promote the hair growth.
Apply selected hair growth therapeutic agent using PGF 2α, and analogues.

`CC(C)(C)NC(=O)[C@H]1CC[C@H]2[C@@H]3CC[C@H]4NC(=O)C=C[C@]4(C)[C@H]3CC[C@]12C` [Finasteride]: in the data set on hair loss, the “share of men in whom hair loss stopped” value is given as 83%.
As for `COc1cc(/C=C/C(=O)CC(=O)/C=C/c2ccc(O)c(OC)c2)ccc1O` [curcumin], the “use as antioxidant for hair growth after application of insulin” value with scalp hair growth (applied after insulin) is reported as “used effectively”.
For IGF-I: Insulin-like growth factor I, in data set [1], the “preventing hair follicles from entering into a catagen-like state, compared with insulin” value is on record as “more potent than insulin”; the “rates of hair follicle growth compared with 10 micrograms/ml insulin” value is recorded as “identical”; the “effect on hair follicle growth” value is on record as “no significant effect”. In addition, in data set [1] (setting [6]), the “stimulation of hair follicle growth” value was “stimulated hair follicle growth in a dose-dependent manner”. For the same compound, the “concentration stimulating maximum rates of hair follicle growth” value in data set [1] (in the absence of insulin) is 10 ng/mL.
As for IGF-II: Insulin-like growth factor II, in data set [1], the “preventing hair follicles from entering into a catagen-like state, compared with insulin” value is on record as “more potent than insulin”; the “rates of hair follicle growth compared with 10 micrograms/ml insulin” value was “unable to stimulate hair follicle growth to the same extent as insulin”; the “effect on hair follicle growth” value was “no significant effect”. In addition, the “stimulation of hair follicle growth” value in data set [1] (setting [6]) was “stimulated hair follicle growth in a dose-dependent manner”. Besides, the “concentration stimulating maximum rates of hair follicle growth” value in data set [1] (in the absence of insulin) is 100 ng/mL.
With “Regular (R) humulin or novolin: Short-acting insulin”, in data set [2] (in vivo), the Duration of action is 5 to 8 h and the Onset of action was 30 to 60 min. Besides, the Peak effect in data set [2] (short-acting insulin) is 2 to 5 h.
Turning to “growth hormone: growth hormone (somatotrophin)”, the “influence on hair follicle and hair growth” value in data set [1] (growth hormone alone) is reported as “no direct influence”.
For “insulin: hormone secreted by beta cells in the islets of Langerhans in the pancreas”, in data set [3] (after application of insulin to the scalp), the hypoglycemia result is “none of our cases developed hypoglycemia”. For the same compound, the “side effect after application” value in data set [3] (insulin preparations on the scalp) is “itching and redness”. Moreover, the “darkening of the skin” value in data set [3] (simple insulin applied to enhance hair growth) is “did not result in any appreciable darkening of the skin”. The “increase of the cytotoxic effect of methotrexate” value in data set [4] is “up to 10,000 fold”. Also, the “hair follicle transplant healing and growth” value in the data set on scalp hair growth (insulin applied with hair follicle transplant, no second agent) was “rapid wound healing along with uptake and growth of hair follicle transplant”. Besides, the hair growth entry in the data set with scalp hair growth (insulin on its own) is given as “enhances the hair growth”. Further, in data set [1] (follicles maintained in medium containing insulin), the “concentration giving maximum rates of hair follicle growth” value is given as 10 micrograms/ml. Also, the “stimulation of hair follicle growth” value in data set [1] (over the range of 0.01 to 100 micrograms/ml) was “stimulated hair follicle growth in a dose-dependent manner”. Further, the “gum diseases (periodontitis)” value in the data set on wound healing (insulin and antibiotics such as doxycycline locally on the gums) is on record as “eliminated gum diseases”. Besides, the “healing after teeth extraction” value in the data set with wound healing (insulin soaked cotton swabs, 1-3-5 units in normal saline) is “rapid healing with reduced pain”. For the same compound, the wound healing result in the data set with wound healing (insulin spray on indolent ulcers) is given as “accelerated wound healing”. Besides, in data set [5], the “hair loss during chemotherapy” value is given as “reduced the hair loss dramatically”.
